How the values were obtained:
[1] = system: primary microglia; experiment: Flow cytometry of active caspase-3 and cathepsin B (CB) in microglia; assay type: cell-based, mouse; settings: N-α-syn-stimulated cultures
Procedure: Samples from cell fractions were labeled with fluorescently labeled Abs to CD4, CD8, CD25, CTLA-4, CD62L, Fas ligand (FasL), Fas (APO-1), CD1 b, and intracellular FoxP3 (eBioscience) and active caspase-3 (Abcam) and analyzed with a FACSCalibur flow cytometer (BD Biosciences). FITC-latex beads ([…], 2.5% solids; Sigma-Aldrich) were added to microglial cultures for 30 minutes. Microglia were then detached and acid-washed (PBS, pH 6.0) to quench fluorescence of nonphagocytosed beads, and cells were analyzed by flow cytometry and gated to CD11b+ cells. Fluorescence intensity was normalized to beads alone.
Apoptotic cells were detected using the TACS TdT Fluorescein In Situ Apoptosis Detection kit (R&D Systems) according to the manufacturer's protocol and were visualized by a fluorescent microscope. MFI of TUNEL+ cells was determined per field using ImageJ and was normalized to DAPI-stained nuclei (n=3, six fields per well). Caspase activity was determined using the SensoLyte Homogeneous Rh110 Caspase-3/7 Assay kit (AnaSpec) according to the manufacturer's protocol. Cell viability was determined by 3-(4,5-dimethylthiazol-2-yl)-2,5-diphenyl tetrazolium bromide (MTT) activity as described previously. Functional grade Abs to mouse FasL (2 μg/ml; eBioscience) and Fas (5 μg/ml; BD PharMingen) and CA074ME (BIOMOL) were used.

[2] = system: MES23.5 cells; experiment: Cathepsin B inhibition and neurotoxicity, microglial supernatants on MES23.5 cells; assay type: cell-based; settings: inhibitor 1 μM, N-α-syn 100 nM
Procedure: MES 23.5 cells were cultured in 75-cm^2 flasks in DMEM/F12 with 15 mM HEPES (Invitrogen) containing N2 supplement (Invitrogen), 100 U/ml of penicillin, 100 μg/ml streptomycin, and 5% FBS. MES23.5 cells is a cell line derived using somatic cell fusion of rat embryonic mesencephalon cells and the murine neuroblastoma-glioma cell line N18TG2 that produce dopamine and express tyrosine hydroxylase (Crawford et al. (1992) J. Neuroscience 12:3392-3398). Cells were grown to 80% confluence then plated at a density of 10×10^4 cells on sterile glass coverslips. Microglia were plated in 6 well plates and incubated for 1 hour with or without 1 μM of cathepsin B inhibitors, CA-074 [cell impermeable] or CA-074 Me [cell permeable] (Sigma), in a 37° C., 5% CO2 incubator to inhibit residual cathepsin B expression (Gan et al. (2004) J. Biol. Chem., 279:5565-5572). […] MES 23.5 cell viability was assessed using the Live/Dead cytotoxicity assay (Invitrogen) as previously described. Live cells were distinguished by the uptake of calcein AM to acquire a green fluorescence [excitation/emission (ex/em) 495/515 nm], while dead cells acquired a red fluorescence (ex/em 495/635 nm) due to the uptake of ethidium homodimer-1 (EthD-1). Cell enumerations were performed using fluorescence microscopy (200× magnification, n=6 wells per group, 3 frames per well).

[3] = system: MPTP-intoxicated mice; experiment: Adoptive transfer of N-4YSyn and VIP SPC or Treg to MPTP-intoxicated mice (Example 6); assay type: in vivo, mouse
Procedure: (§1) Recombinant C-terminal tail of α-syn (4YSyn) was purified, nitrated (N-4YSyn), and tested for endotoxin as described. Male C57BL/6J mice and FoxP3-GFP knock in C57BL/6J mice (5 weeks old, The Jackson Laboratory) were immunized with N-4YSyn emulsified in adjuvant as described. […] Recipient mice received four i.p. injections at 2 hour intervals of either vehicle (PBS, 10 mL/kg bodyweight) or MPTP-HCl (16 mg MPTP/kg bodyweight of free base in PBS; Sigma-Aldrich). Twelve hours after the last injection, MPTP-intoxicated mice received adoptive transfers of whole SPC, Treg or no cells (n=5-7 mice per group per time point). On days 2 and 7 post-MPTP, mice were sacrificed and brains were processed for analysis. […] MPTP safety measures were in accordance with published guidelines (Przedborski et al. (2001) J. Neurochem., 76:1265-1274).
Seven days following treatment, mice were sacrificed and single cell suspensions were prepared from inguinal lymph nodes and spleens. CD4+ T cell populations from spleens and lymph nodes were enriched by negative selection with CD4-enrichment columns (R & D Systems) followed by CD25-PE positive selection with AutoMACS (Miltenyi Biotec). […] Proliferation and inhibition assays were performed as described. MPTP-intoxicated mice received an i.v. tail injection of 5×10^7 SPC or 1×10^6 Treg in 0.25 ml of HBSS.
Mice were transcardially-perfused with PBS followed by 4% paraformaldehyde (PFA, Sigma). Frozen midbrain sections (30 μm) were immunostained for Mac-1 (CD11b, 1:1000; Serotec). Fluorojade C staining (Millipore) was performed on adjacent sections according to manufacturer's protocol to assess degenerating neurons and quantified using ImageJ. Overall dopaminergic neuron survival was assessed seven days following MPTP intoxication and resolution of cell death processes with polyclonal antibody to mouse Tyrosine hydroxylase (TH), 1:1000 (Calbiochem) and counterstained for Nissl substance by thionin staining (Tieu et al. (2003) J. Clin. Invest., 112:892-901) as previously described (Benner et al. (2004) Proc. Natl. Acad. Sci., 101:9435-9440). Total numbers of Mac-1^+ cells, […] and Nissl-stained neurons in the SNpc were estimated by stereological analysis with StereoInvestigator software (MicroBrightfield) using the optical fractionator module (Liberatore et al. (1999) Nat. Med., 5:1403-1409). Quantitation of striatal TH (1:500; Calbiochem) was performed by densitometric analysis as described (Benner et al. (2004) Proc. Natl. Acad. Sci., 101:9435-9440). Adjacent midbrain sections were immunostained for CD4 (L3T4; 1:200, BD Pharmingen). Sections were incubated in streptavidin-horseradish peroxidase (HRP) solution (ABC Elite vector kit, Vector Laboratories), and color developed using a generation system consisting of diaminobenzidine (DAB) chromogen (Sigma-Aldrich) as described (Benner et al. (2004) Proc. Natl. Acad. Sci., 101:9435-9440).

[4] = system: MPTP-intoxicated B10.BR mice; experiment: Adoptive transfer of immune SPC or T cells to MPTP-treated B10.BR mice; assay type: in vivo, mouse
[5] = system: TH+ neurons in the SN; experiment: Chronic MPTP intoxication, TH+ neuron counts in SN of WT and SCID mice; assay type: in vivo, mouse
Procedure: For chronic intoxication, B6 mice received 5 intraperitoneal (i.p.) injections at 24 hour intervals for 5 days of either vehicle (PBS, 10 ml/kg) or MPTP-HCl (30 mg/kg of free base in PBS) (Sigma-Aldrich, St. Louis, Mo.). For acute intoxication, mice received 4 i.p. injections, one every 2 hours, of either vehicle (PBS, 10 ml/kg) or MPTP-HCl (18 mg/kg of free base in PBS for B10.BR mice, 14 or 18 mg/kg for B6 mice). At selected time points following MPTP intoxication, mice were sacrificed and brains processed for subsequent analyses. MPTP handling and safety measures were in accordance with published guidelines (Przedborski et al. (2001) J. Neurochem., 76:1265-1274).
At the time points indicated following MPTP intoxication, mice were transcardially perfused with 4% paraformaldehyde (PFA) in 0.1 M PBS using 0.9% saline as vascular rinse. Brains were post-fixed in 4% PFA overnight, kept in 30% sucrose for 2 days, snap frozen, embedded in OCT compound, and […] sections cut on a cryostat (CM1900, Leica, Bannockburn, Ill.). The sections were collected in PBS and processed free-floating. […] Fluoro-Jade C (Chemicon International, Inc., Temecula, Calif.) was used to stain degenerating neurons (Schmued et al. (2005) Brain Res., 1035:24-31) and was detected as green fluorescence by fluorescence microscopy with FITC filter (Eclipse E800, Nikon, Inc., Melville, N.Y.). […]

[6] = system: MPTP-intoxicated mice; experiment: Adoptive transfer of polarized N-4YSyn CD4+ T cell subsets to MPTP-intoxicated mice; assay type: in vivo, mouse; settings: 7 days after MPTP
Procedure: as §1
CD4+ T cells were isolated from N-4YSyn immunized donors and cultured 1×10^6/ml CD4+ T cells with 2×10^6/ml irradiated SPC and […] N-4YSyn in 20 ml of complete RPMI 1640 supplemented with 10% FBS, 2 mM L-glutamine, 10 mM HEPES, 55 μm 2-mercaptoethanol, 100 units/ml penicillin, and 100 μg/ml streptomycin in T25 flasks. […]
Mice were transcardially-perfused with PBS followed by 4% paraformaldehyde (PFA, Sigma). […] Fluorojade C staining (Millipore) was performed on adjacent sections according to manufacturer's protocol to assess degenerating neurons and quantified using ImageJ. Overall dopaminergic neuron survival was assessed seven days following MPTP intoxication and resolution of cell death processes with polyclonal antibody to mouse Tyrosine hydroxylase (TH), 1:1000 (Calbiochem) and counterstained for Nissl substance by thionin staining (Tieu et al. (2003) J. Clin. Invest., 112:892-901) as previously described (Benner et al. (2004) Proc. Natl. Acad. Sci., 101:9435-9440). […] Quantitation of striatal TH (1:500; Calbiochem) was performed by densitometric analysis as described (Benner et al. (2004) Proc. Natl. Acad. Sci., 101:9435-9440). […]

[7] = system: MPTP-intoxicated B6 mice; experiment: Adoptive transfer of immune SPC to MPTP-treated B6 mice; assay type: in vivo, mouse; settings: day 7
[8] = system: SPC (spleen cells); experiment: Antigen-specific 3H-thymidine proliferation of SPC from immunized mice; assay type: cell-based, mouse; settings: B10.BR mice immunized in CFA/IFA
[9] = system: anti-CD3 stimulated T cells; experiment: PI uptake cytotoxicity of anti-CD3 stimulated T cells (flow cytometry); assay type: cell-based, mouse; settings: 24 hours
Procedure: To assess α-Syn-mediated cytotoxicity, purified T cells were stimulated with anti-CD3 and cultured at a density of 1×10^6 cells/ml for 24 hours in media alone or in the presence of 4YSyn or N-4YSyn at concentrations of 1, 3, 10, or 30 μg/ml. Cells were stained with PI, washed and the percentages of PI^+ dead cells and MFI were analyzed by flow cytometry.

[10] = system: anti-CD3 stimulated T cells; experiment: Proliferation of anti-CD3 activated T cells with 4YSyn or N-4YSyn; assay type: cell-based, mouse; settings: 1, 3, 10 and 30 μg/ml
Procedure: For proliferation analyses, purified T cells from naive B6 mice were plated with SPC irradiated at 3000 rad (1:3) at 2×10^6 cells/ml in complete RPMI tissue culture media and activated with anti-CD3 (0.5 μg/ml, 145-2C11; BD Pharmingen) in U-bottom 96-well tissue culture plates. Graded concentrations of 4YSyn or N-4YSyn were added to quadruplicate wells. After activation for 3 days, ^3H-thymidine incorporation was performed as described previously.

CCCNC(=O)[C@H]1O[C@@H]1C(=O)N[C@H](C(=O)N1CCC[C@H]1C(=O)OC)[C@@H](C)CC [CA-074 Me]
diminution of active caspase-3+ cells [1]: 11.1±0.5% | protection of DA cells v. N-α-syn alone [2]: 87%

CN1CC=C(c2ccccc2)CC1 [MPTP, 1-methyl-4-phenyl-1,2,3,6-tetrahydropyridine]
increase in numbers of Mac-1+ cells within the SNpc compared with PBS controls ([3]; 2 days post-MPTP): greater than 16 fold | loss of nigral TH+ neurons compared with PBS controls ([3]; 7 days after MPTP, FIG. 35C): 45% | reduction of SNpc TH+ neurons compared with PBS controls ([3]; 7 days after MPTP, FIG. 38B): 48% | Striatal TH+ density ([3]; 7 days after MPTP, FIG. 38C): 16 % of PBS controls | TH+ neuron survival ([3]; MPTP mice, FIG. 38D, Treg co-transferred with N-4YSyn SPC): 49% | reduction of SN TH+ neurons compared to PBS controls ([4]; MPTP-treated B10.BR mice, stereology): 45% | Counts of Mac-1+ microglia ([4]; SN of MPTP-treated B10.BR mice, mean±SEM): 27.7±3.2 /mm^2 | numbers of TH+ neurons compared to PBS ([5]; SCID mice): No significant difference | reduction in numbers of TH+ neurons in the SN compared to PBS ([5]; WT B6 mice, 21 days after last injection): 33% | TH density within the striatum [6]: 26 % of PBS-treated controls | loss of TH+ neurons vs PBS-treated controls [6]: 25% | total TH+ neurons within the SNpc [6]: 5971±250 | loss of TH+ nigral neurons compared to PBS-treated controls [7]: 43%

4YSyn: recombinant His-tagged C-terminal 40 aa α-Syn fragment containing all four tyrosine residues, non-nitrated
proliferative response of SPC to in vitro stimulation with the antigen [8]: no significant immune responses | % PI+ T cells ([9]; 1 μg/ml): 4.9% | MFI of PI-stained T cells ([9]; 1 μg/ml): 32.3 | % PI+ T cells ([9]; 3 μg/ml): 6% | MFI of PI-stained T cells ([9]; 3 μg/ml): 34.1 | % PI+ T cells ([9]; 10 μg/ml): 4.7% | MFI of PI-stained T cells ([9]; 10 μg/ml): 25.2 | % PI+ T cells ([9]; 30 μg/ml): 4.2% | MFI of PI-stained T cells ([9]; 30 μg/ml): 26.8 | proliferation of anti-CD3 stimulated T cells [10]: not inhibited

Reference: patent US9782464B2, “Methods and compositions for inhibiting diseases of the central nervous system” (Board of Regents of the University of Nebraska, priority 2008, dated 2017)
